Among the data in ChEMBL document CHEMBL1156203, “Synthesis and evaluation of alkenyl indazoles as selective Aurora kinase inhibitors” (Bioorg Med Chem Lett, 2010) are Ratio IC50 and IC50 values, retold here.

Structures are written as SMILES.

Experiment [1] is described as follows: Selectivity ratio of IC50 for recombinant Aurora A to IC50 for recombinant Aurora B.
In a further experiment the target is T1, Aurora kinase A (Homo sapiens, UniProt O14965).
T1 sequence (O14965 whole entry): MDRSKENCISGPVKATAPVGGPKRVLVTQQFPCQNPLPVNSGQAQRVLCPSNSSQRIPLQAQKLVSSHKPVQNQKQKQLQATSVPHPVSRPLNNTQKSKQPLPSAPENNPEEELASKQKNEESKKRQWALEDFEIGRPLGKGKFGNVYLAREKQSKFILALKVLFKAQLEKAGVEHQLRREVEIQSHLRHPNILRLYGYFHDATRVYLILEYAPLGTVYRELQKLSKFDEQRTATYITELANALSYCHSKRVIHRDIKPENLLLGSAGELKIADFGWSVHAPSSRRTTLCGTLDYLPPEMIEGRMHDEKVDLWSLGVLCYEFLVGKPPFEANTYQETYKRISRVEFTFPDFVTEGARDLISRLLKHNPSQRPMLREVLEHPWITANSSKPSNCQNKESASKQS
Put plainly: Inhibition of hexahistidine tagged recombinant Aurora A expressed in Hi-5 cells assessed as ATP remaining after 2 hrs by bioluminescence.

In another experiment the target is Aurora kinase B (Homo sapiens, UniProt Q96GD4). The experiment is described as follows: Inhibition of GST tagged recombinant Aurora B expressed in Hi-5 cells after 1 hr by TRF assay.
Sequence of Aurora kinase B (Q96GD4 whole entry): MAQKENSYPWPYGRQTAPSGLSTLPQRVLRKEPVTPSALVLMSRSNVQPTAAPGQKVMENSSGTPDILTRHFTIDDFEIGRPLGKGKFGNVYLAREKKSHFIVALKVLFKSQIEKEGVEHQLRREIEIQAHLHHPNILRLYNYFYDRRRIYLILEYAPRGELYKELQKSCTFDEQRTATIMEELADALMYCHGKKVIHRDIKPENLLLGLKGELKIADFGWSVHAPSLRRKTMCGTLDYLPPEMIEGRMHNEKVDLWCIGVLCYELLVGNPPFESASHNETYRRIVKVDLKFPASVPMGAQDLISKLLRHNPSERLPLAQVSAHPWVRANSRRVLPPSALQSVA

As a reminder, the IC50 is the concentration that inhibits the measured activity by half. Take `Cc1cc2[nH]nc(/C=C/c3cccc(CN4CCN(C)CC4)c3)c2cc1NC(=O)Cc1cccs1`: the Ratio IC50 in experiment [1] came out at 0.6. The IC50 at Aurora kinase A amounted to 79 nM; on Aurora kinase B, 130 nM.
Take `O=C(Cc1ccccc1)Nc1ccc2[nH]nc(/C=C/c3ccccc3)c2c1`: on Aurora kinase A, the IC50 turned out to be 22 nM.
Consider `Cc1cc2[nH]nc(/C=C/c3ccccc3)c2cc1NC(=O)Cc1cccs1`, for which the half-inhibitory concentration (IC50) came out at 17 nM on Aurora kinase A and 47 nM at Aurora kinase B.
Regarding `Cc1c(C#N)ccc2[nH]nc(/C=C/c3cccc(CN4CCN(C)CC4)c3)c12`, the Ratio IC50 in experiment [1] was 4.7. For the same compound, the IC50 at Aurora kinase A turned out to be 280 nM; on Aurora kinase B, 59 nM.
As to `CN1CCN(Cc2cccc(/C=C/c3n[nH]c4ccc(NC(=O)Cc5cccs5)cc34)c2)CC1`, the Ratio IC50 in experiment [1] stood at 1.3. Also, the IC50 amounted to 35 nM on Aurora kinase A and 26 nM on Aurora kinase B.
With `Cc1c(NC(=O)Cc2cccs2)ccc2[nH]nc(/C=C/c3cccc(CN4CCN(C)CC4)c3)c12`, in experiment [1], the Ratio IC50 was 19. For the same compound, the IC50 was 1900 nM on Aurora kinase A and 99 nM on Aurora kinase B.
As for `CN1CCN(c2cc3[nH]nc(/C=C/c4ccccc4)c3cc2NCc2ccccn2)CC1`, in experiment [1], the Ratio IC50 was greater than 12. Also, the IC50 on Aurora kinase A was greater than 10000 nM; at Aurora kinase B, 810 nM.
Regarding `O=C(Cc1ccccc1)Nc1ccc2[nH]nc(C3CC3c3ccccc3)c2c1` (centres undefined), the values for the IC50 on Aurora kinase A and at Aurora kinase B were 640 nM and 1640 nM, respectively.
Turning to `Cc1cc2[nH]nc(/C=C/c3cccc(NC(=O)N4CCN(C)CC4)c3)c2cc1NC(=O)Cc1cccs1`, the Ratio IC50 in experiment [1] is 0.28. Further, the IC50 was 13 nM on Aurora kinase A and 46 nM on Aurora kinase B.
With `Cc1cc(N)cc(-c2ccc3[nH]nc(/C=C/c4cccc(CN5CCN(C)CC5)c4)c3c2C)c1`, the Ratio IC50 in experiment [1] was found to be 11.3. For the same compound, the results for the IC50 at Aurora kinase A and on Aurora kinase B were 350 nM and 31 nM, respectively.
For the compound `COc1ccc(OC)c(CC(=O)Nc2cc3c(/C=C/c4ccccc4)n[nH]c3cc2C)c1`, in experiment [1], the Ratio IC50 stood at 0.23. Besides, the IC50 was determined as 42 nM on Aurora kinase A and 180 nM on Aurora kinase B.
The like results for `O=[N+]([O-])c1cc2c(/C=C/c3ccccc3)n[nH]c2cc1N1CCCC1` were, in that order, 2.2, 240 nM and 110 nM.
Consider `CN1CCN(C(=O)Nc2cccc(/C=C/c3n[nH]c4cc(N5CCCC5)c(NS(C)(=O)=O)cc34)c2)CC1`, for which the Ratio IC50 in experiment [1] worked out at 2.3. The IC50 at Aurora kinase A was 140 nM; on Aurora kinase B, 62 nM.
As for `O=C(Cc1cccs1)Nc1cc2c(/C=C/c3ccccc3)n[nH]c2cc1N1CCCC1`, the Ratio IC50 in experiment [1] was 0.8. Also, the IC50 at Aurora kinase A amounted to 91 nM; on Aurora kinase B, 110 nM.
As to `Cc1cc2[nH]nc(/C=C/c3ccccc3)c2cc1NC(=O)Cc1ccccc1`, the IC50 at Aurora kinase A worked out at 19 nM.
In the case of `Nc1cc2c(/C=C/c3ccccc3)n[nH]c2cc1N1CCCC1`, in experiment [1], the Ratio IC50 was determined as 2.5. The results for the IC50 on Aurora kinase A and on Aurora kinase B were 200 nM and 81 nM, respectively.
Turning to `O=S(=O)(Cc1ccccc1)Nc1ccc2[nH]nc(/C=C/c3ccccc3)c2c1`, in experiment [1], the Ratio IC50 was found to be 1.1. Besides, the IC50 at Aurora kinase A was 35 nM; at Aurora kinase B it was 31 nM.
As to `Cc1cc2[nH]nc(C#Cc3ccccc3)c2cc1NC(=O)Cc1cccs1`, the IC50 at Aurora kinase A worked out at 240 nM; at Aurora kinase B, 110 nM.
`C(=C\c1n[nH]c2cc(N3CCCC3)c(NCc3ccccn3)cc12)/c1ccccc1`: the Ratio IC50 in experiment [1] worked out at 5. Besides, the IC50 stood at 620 nM at Aurora kinase A and 130 nM on Aurora kinase B.
Consider `C(=C\c1n[nH]c2cc(N3CCCC3)c(-c3ccncc3)cc12)/c1ccccc1`, for which, in experiment [1], the Ratio IC50 turned out to be 3.5. The values for the IC50 at Aurora kinase A and at Aurora kinase B were 160 nM and 46 nM, respectively.
With `O=C(Cc1ccccc1)Nc1ccc2[nH]nc(CCc3ccccc3)c2c1`, at Aurora kinase A, the IC50 stood at 1700 nM.
